The assay concerns the target T1, Human PPARα (Homo sapiens, UniProt Q07869).
T1 construct: host or cells: proprietary non-human mammalian cells
T1 sequence (Q07869 1-468): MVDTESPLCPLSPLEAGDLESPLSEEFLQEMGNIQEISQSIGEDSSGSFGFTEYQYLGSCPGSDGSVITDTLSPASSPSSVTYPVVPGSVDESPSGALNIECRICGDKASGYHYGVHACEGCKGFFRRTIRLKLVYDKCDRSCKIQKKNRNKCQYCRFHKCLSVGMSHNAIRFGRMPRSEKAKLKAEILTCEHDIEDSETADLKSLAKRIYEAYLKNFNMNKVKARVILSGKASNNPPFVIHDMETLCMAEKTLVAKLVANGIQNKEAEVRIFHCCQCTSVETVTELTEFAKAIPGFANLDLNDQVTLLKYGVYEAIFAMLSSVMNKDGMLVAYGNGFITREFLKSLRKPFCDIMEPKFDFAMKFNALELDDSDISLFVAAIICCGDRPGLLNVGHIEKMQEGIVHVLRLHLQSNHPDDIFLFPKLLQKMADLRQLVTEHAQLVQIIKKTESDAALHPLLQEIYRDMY
The experiment in a line: Human PPARα Reporter Assay (luciferase). The assay is classed as cell-based. As to conditions: human PPARα reporter cells, overnight incubation, antagonism; read-out: Luciferase IC50. In a few lines:
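Agonist or antagonist activity read as luciferase light from engineered reporter cells carrying human PPARα and a responsive reporter gene. Cells got compound immediately on dispensing, incubated overnight, then treatment media swapped for luciferase detection reagent.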

25 molecules from patent US9505728B2, “Triazolone compounds and uses thereof” (INCEPTION 2, INC., priority 2012, dated 2016) can be followed below.

Consider `CCn1c(CCCc2ccc(-c3ccc(OC)c(NS(=O)(=O)c4ccccc4)c3)cc2)nn(Cc2ccc(C(C)(C)C)cc2)c1=O` [Example 151, 1-{[4-(tert-Butyl)phenyl]methyl}-4-ethyl-3-[3-(4-{4-methoxy-3-[(phenylsulfonyl)amino]phenyl}phenyl)propyl]-1,2,4-triazolin-5-one], for which the IC50 worked out at 61 nM.

Consider `CCn1c(CCC(F)(F)c2ccc(-c3ccc(C4(O)COC4)cc3)cc2)nn(Cc2ccc(C(C)(C)C)cc2)c1=O` [Example 196, 1-(4-(tert-Butyl)benzyl)-3-(3,3-difluoro-3-(4′-(3-hydroxyoxetan-3-yl)-[1,1′-biphenyl]-4-yl)propyl)-4-ethyl-1H-1,2,4-triazol-5(4H)-one], for which the IC50 worked out at 110 nM.

For the molecule `CCn1c(CCCc2ccc(-c3csc(CC(=O)O)c3)cc2)nn(Cc2ccc(C(C)(C)C)cc2)c1=O` [Example 39, 2-(4-(4-(3-(1-(4-(tert-Butyl)benzyl)-4-ethyl-5-oxo-4,5-dihydro-1H-1,2,4-triazol-3-yl)propyl)phenyl)thiophen-2-yl)acetic acid], the IC50 was 707 nM.

For the molecule `CCn1c(CCCc2ccc(-c3ccc(C)c(C(=O)O)c3)cc2)nn(Cc2ccc(C(C)(C)C)cc2)c1=O` [Example 132, 4′-(3-(1-(4-(tert-Butyl)benzyl)-4-ethyl-5-oxo-4,5-dihydro-1H-1,2,4-triazol-3-yl)propyl)-4-methyl-[1,1′-biphenyl]-3-carboxylic acid], the IC50 stood at 12 nM.

With `CCn1c(CCCc2ccc(-c3cc(C(=O)O)c(OC)cn3)cc2)nn(Cc2ccc(C(C)(C)C)cc2)c1=O` [Example 140, 2-(4-(3-(1-(4-(tert-Butyl)benzyl)-4-ethyl-5-oxo-4,5-dihydro-1H-1,2,4-triazol-3-yl)propyl)phenyl)-5-methoxyisonicotinic acid], the IC50 worked out at 396 nM.

For `CCn1c(CCCc2ccc(-c3cc(CC(=O)O)ccn3)cc2)nn(Cc2ccc(C(C)(C)C)cc2)c1=O` [Example 45, 2-(2-{4-[3-(1-{[4-(tert-Butyl)phenyl]methyl}-4-ethyl-5-oxo-1,2,4-triazolin-3-yl)propyl]phenyl}-4-pyridyl)acetic acid], the IC50 turned out to be 306 nM.

As to `CCn1c(CCCc2ccc(-c3ncc(OC)c(C(=O)O)n3)cc2)nn(Cc2ccc(C(C)(C)C)cc2)c1=O` [Example 181, 2-(4-(3-(1-(4-(tert-Butyl)benzyl)-4-ethyl-5-oxo-4,5-dihydro-1H-1,2,4-triazol-3-yl)propyl)phenyl)-5-methoxypyrimidine-4-carboxylic acid], the 50% inhibitory concentration (IC50) stood at 846 nM.

As to `CCn1c(CCCc2ccc(-c3cccc(C(Cc4ccccc4)C(=O)O)c3)cc2)nn(Cc2ccc(C(C)(C)C)cc2)c1=O` (stereo not shown) [Example 47, 2-(3-{4-[3-(1-{[4-(tert-Butyl)phenyl]methyl}-4-ethyl-5-oxo(1,2,4-triazolin-3-yl))propyl]phenyl}phenyl)-3-phenylpropanoic acid], the half-maximal inhibitory concentration (IC50) turned out to be 685 nM.

In the case of `CCn1c(CCCc2ccc(-c3cnc(OC)c(C(=O)O)n3)cc2)nn(Cc2ccc(C(C)(C)C)cc2)c1=O` [Example 162, 6-(4-(3-(1-(4-(tert-Butyl)benzyl)-4-ethyl-5-oxo-4,5-dihydro-1H-1,2,4-triazol-3-yl)propyl)phenyl)-3-methoxypyrazine-2-carboxylic acid], the IC50 was 630 nM.

Take `CCn1c(CCCc2ccc(-c3cccc(CS(=O)(=O)NCc4ccccc4)c3)cc2)nn(Cc2ccc(C(C)(C)C)cc2)c1=O` [Example 105, N-Benzyl-1-(4′-(3-(1-(4-(tert-butyl)benzyl)-4-ethyl-5-oxo-4,5-dihydro-1H-1,2,4-triazol-3-yl)propyl)-[1,1′-biphenyl]-3-yl)methanesulfonamide]: the half-maximal inhibitory concentration (IC50) was 985 nM.

Regarding `CCn1c(CCCc2ccc(-c3cnc(NS(=O)(=O)c4ccccc4)cn3)cc2)nn(Cc2ccc(C(C)(C)C)cc2)c1=O` [Example 118, N-(5-(4-(3-(1-(4-(tert-Butyl)benzyl)-4-ethyl-5-oxo-4,5-dihydro-1H-1,2,4-triazol-3-yl)propyl)phenyl)pyrazin-2-yl)benzenesulfonamide], the half-inhibitory concentration (IC50) came to 446 nM.

On to `CCOc1ccc(-c2ccc(CCCc3nn(Cc4ccc(C(C)(C)C)cc4)c(=O)n3CC)cc2)nc1N` [Example 60, 3-{3-[4-(6-Amino-5-ethoxy(2-pyridyl))phenyl]propyl}-1-{[4-(tert-butyl)phenyl]methyl}-4-ethyl-1,2,4-triazolin-5-one], for which the IC50 turned out to be 63 nM.

As for `CCn1c(CCCc2ccc(-c3ccc(OC)c(CC(=O)O)n3)cc2)nn(Cc2ccc(C(C)(C)C)cc2)c1=O` [Example 144, 2-(6-(4-(3-(1-(4-(tert-Butyl)benzyl)-4-ethyl-5-oxo-4,5-dihydro-1H-1,2,4-triazol-3-yl)propyl)phenyl)-3-methoxypyridin-2-yl)acetic acid], the IC50 was determined as 114 nM.

As to `CCn1c(CCCc2ccc(-c3ccc(OC)c([C@@H](C)C(=O)O)c3)cc2)nn(Cc2ccc(C(C)(C)C)cc2)c1=O` [Example 141, (R)-2-(4′-(3-(1-(4-(tert-Butyl)benzyl)-4-ethyl-5-oxo-4,5-dihydro-1H-1,2,4-triazol-3-yl)propyl)-4-methoxy-[1,1′-biphenyl]-3-yl)propanoic acid], the IC50 is 29 nM.

Take `CCn1c(CCC(F)(F)c2ccc(-c3ccc(OC)c(CC(=O)O)c3)cc2)nn(Cc2ccc(C(C)(C)C)cc2)c1=O` [Example 163, 2-(4′-(3-(1-(4-(tert-Butyl)benzyl)-4-ethyl-5-oxo-4,5-dihydro-1H-1,2,4-triazol-3-yl)-1,1-difluoropropyl)-4-methoxy-[1,1′-biphenyl]-3-yl)acetic acid]: the half-maximal inhibitory concentration (IC50) is 15 nM.

As for `CC(C)(C)c1ccc(Cn2nc(CCCc3ccc(-c4cccc(CC(=O)O)c4)cc3)n(CC3CC3)c2=O)cc1` [Example 53, 2-(4′-(3-(1-(4-(tert-Butyl)benzyl)-4-(cyclopropylmethyl)-5-oxo-4,5-dihydro-1H-1,2,4-triazol-3-yl)propyl)-[1,1′-biphenyl]-3-yl)acetic acid], the IC50 is 363 nM.

On to `CCn1c(CCCc2ccc(-c3nccc(NS(=O)(=O)c4ccccc4)n3)cc2)nn(Cc2ccc(C(C)(C)C)cc2)c1=O` [Example 81, N-(2-(4-(3-(1-(4-(tert-Butyl)benzyl)-4-ethyl-5-oxo-4,5-dihydro-1H-1,2,4-triazol-3-yl)propyl)phenyl)pyrimidin-4-yl)benzenesulfonamide], for which the IC50 came out at 127 nM.

With `C=CCn1c(CCCc2ccc(-c3ccc(OC)c(CC(=O)O)c3)cc2)nn(Cc2ccc(C(C)(C)C)cc2)c1=O` [Example 76, 2-(4′-(3-(4-Allyl-1-(4-(tert-butyl)benzyl)-5-oxo-4,5-dihydro-1H-1,2,4-triazol-3-yl)propyl)-4-methoxy-[1,1′-biphenyl]-3-yl)acetic acid], the IC50 came out at 261 nM.

Take `CCn1c(CCCc2ccc(-c3cccc(NC(=O)c4ccccc4)n3)cc2)nn(Cc2ccc(C(C)(C)C)cc2)c1=O` [Example 97, N-(6-{4-[3-(1-{[4-(tert-Butyl)phenyl]methyl}-4-ethyl-5-oxo(1,2,4-triazolin-3-yl))propyl]phenyl}(2-pyridyl))benzamide]: the half-inhibitory concentration (IC50) was found to be 745 nM.

As to `CCn1c(CCCc2ccc(-c3cnc(C4(O)COC4)s3)cc2)nn(Cc2ccc(C(C)(C)C)cc2)c1=O` [Example 204, 1-(4-(tert-Butyl)benzyl)-4-ethyl-3-(3-(4-(2-(3-hydroxyoxetan-3-yl)thiazol-5-yl)phenyl)propyl)-1H-1,2,4-triazol-5(4H)-one], the IC50 stood at 50 nM.

For `CCn1c(CCCc2ccc(-c3cccc(CNS(=O)(=O)c4ccccc4)c3)cc2)nn(Cc2ccc(C(C)(C)C)cc2)c1=O` [Example 177, 1-{[4-(tert-Butyl)phenyl]methyl}-4-ethyl-3-{3-[4-(3-{[(phenylsulfonyl)amino]methyl}phenyl)phenyl]propyl}-1,2,4-triazolin-5-one], the concentration for half-maximal inhibition (IC50) is 419 nM.

Take `CCn1c(CCCc2ccc(-c3ccc(C4(C(=O)O)CC4)cc3)cc2)nn(Cc2ccc(C(C)(C)C)cc2)c1=O` [Example 137, 1-(4′-(3-(1-(4-(tert-Butyl)benzyl)-4-ethyl-5-oxo-4,5-dihydro-1H-1,2,4-triazol-3-yl)propyl)-[1,1′-biphenyl]-4-yl)cyclopropanecarboxylic acid]: the concentration for half-maximal inhibition (IC50) was determined as 676 nM.

With `CCn1c(CCCc2ccc(-c3ccc(C4(F)COC4)nc3)cc2)nn(Cc2ccc(C(C)(C)C)cc2)c1=O` [Example 166, 1-(4-(tert-Butyl)benzyl)-4-ethyl-3-(3-(4-(6-(3-fluorooxetan-3-yl)pyridine-3-yl)phenyl)propyl)-1H-1,2,4-triazol-5(4H)-one], the IC50 turned out to be 91 nM.

For the molecule `CCn1c(CCCc2ccc(-c3ccc(F)c(CC(=O)O)c3)cc2)nn(Cc2ccc(C(C)(C)C)cc2)c1=O` [Example 33, 2-(4′-(3-(1-(4-(tert-Butyl)benzyl)-4-ethyl-5-oxo-4,5-dihydro-1H-1,2,4-triazol-3-yl)propyl)-4-fluoro-[1,1′-biphenyl]-3-yl)acetic acid], the IC50 is 427 nM.

Consider `CCn1c(CCCc2ccc(-c3ccc(OC)c(CC(=O)O)c3)cc2)nn(Cc2ccc(C(C)(C)C)cc2)c1=O` [Example 21, 2-(4′-(3-(1-(4-(tert-Butyl)benzyl)-4-ethyl-5-oxo-4,5-dihydro-1H-1,2,4-triazol-3-yl)propyl)-4-methoxy-[1,1′-biphenyl]-3-yl)acetic acid], for which the half-maximal inhibitory concentration (IC50) was 25 nM.
